Assay results from the supplement of paper PMC9663587.

Key:
MDAMB330 = assay: GRmax, 72 h; higher = less effect;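 note: breast cell lines in 384-well plates, nine doses across a 10^4 range, Dye Drop imaging of viable cells vs DMSO and time-zero plates, GR 0 means no net growth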
HCC202 = assay: GRmax, 72 h; higher = less effect;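 note: breast cell lines in 384-well plates, nine doses across a 10^4 range, Dye Drop imaging of viable cells vs DMSO and time-zero plates, GR 0 means no net growth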
SUM190PT = assay: GRmax, 72 h; higher = less effect;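 note: breast cell lines in 384-well plates, nine doses across a 10^4 range, Dye Drop imaging of viable cells vs DMSO and time-zero plates, GR 0 means no net growth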
MCF7 = assay: GRmax, 72 h; higher = less effect;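 note: breast cell lines in 384-well plates, nine doses across a 10^4 range, Dye Drop imaging of viable cells vs DMSO and time-zero plates, GR 0 means no net growth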
HCC1806 = assay: GRmax, 72 h; higher = less effect
HCC1954 = assay: GRmax, 72 h; higher = less effect
BT549 = assay: GRmax, 72 h; higher = less effect
SUM44PE = assay: GRmax, 72 h; higher = less effect
SUM185PE = assay: GRmax, 72 h; higher = less effect
HCC1500 = assay: area over the GR curve, 72 h; higher = more effect;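 note: Dye Drop or Deep Dye Drop imaging of viable cells in 384-well plates (Hoechst nuclei, LIVE/DEAD dye), nine half-log doses, GR normalized to DMSO controls and time-zero plates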
MDAMB157 = assay: area over the GR curve, 72 h; higher = more effect;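 note: Dye Drop or Deep Dye Drop imaging of viable cells in 384-well plates (Hoechst nuclei, LIVE/DEAD dye), nine half-log doses, GR normalized to DMSO controls and time-zero plates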

SMILES	GRmax, 72 h (MDAMB330) [GR]	GRmax, 72 h (HCC202) [GR]	GRmax, 72 h (SUM190PT) [GR]	GRmax, 72 h (MCF7) [GR]	GRmax, 72 h (HCC1806) [GR]	GRmax, 72 h (HCC1954) [GR]	GRmax, 72 h (BT549) [GR]	GRmax, 72 h (SUM44PE) [GR]	GRmax, 72 h (SUM185PE) [GR]	area over the GR curve (HCC1500) [GR]	area over the GR curve (MDAMB157) [GR]	GRmax, 72 h (MCF7; main component drawn) [GR]	GRmax, 72 h (HCC1806; main component drawn) [GR]	GRmax, 72 h (HCC1954; main component drawn) [GR]	GRmax, 72 h (BT549; main component drawn) [GR]	area over the GR curve (HCC1500; main component drawn) [GR]	area over the GR curve (MDAMB157; main component drawn) [GR]
CC(=O)Nc1cccc(-n2c(=O)n(C3CC3)c(=O)c3c(Nc4ccc(I)cc4F)n(C)c(=O)c(C)c32)c1 (max 1 µM)	0.251	0.526	0.744	0.558	0.704	0.229	0.598	0.56	0.904	0.212	0.301						
CCc1cnn2c(NCc3ccc[n+]([O-])c3)cc(N3CCCC[C@H]3CCO)nc12 (max 1 µM)	-0.504	0.0907	-0.659	-0.249	-0.459	-0.464	-0.292	-0.925	0.18	0.662	0.765						
CC(=O)c1c(C)c2cnc(Nc3ccc(N4CCNCC4)cn3)nc2n(C2CCCC2)c1=O (max 3.162 µM)	0.207	0.691	0.347	0.254	0.692	0.526	1.08	0.437	0.852	0.11	-0.0037						
CCc1cncnc1N1CCN(Cc2nc3ccc(C(F)(F)F)cc3[nH]2)CC1 (max 10 µM)	0.621	0.673	0.461	0.558	1.15	0.835	0.744	0.292	0.182	0.182	0.119						
CCN1CCN(Cc2ccc(Nc3ncc(F)c(-c4cc(F)c5nc(C)n(C(C)C)c5c4)n3)nc2)CC1 (max 10 µM)	-0.0152	0.3	-0.582	-0.268	-0.444	-0.505	0.0333	-0.763	0.486	0.342	0.266						
Cc1nn(C)c(COc2ccc(N3CCN(S(=O)(=O)N(C)C)CC3)cc2)c1-c1cccc2c(CCCOc3cccc4ccccc34)c(C(=O)O)n(CCN3CCOCC3)c12 (max 10 µM)	0.881	0.828	0.114	0.877	0.905	0.884	0.954	-0.463	0.532	-0.063	0.0057						
CN(C)CC[C@H](CSc1ccccc1)Nc1ccc(S(=O)(=O)NC(=O)c2ccc(N3CCN(Cc4ccccc4-c4ccc(Cl)cc4)CC3)cc2)cc1[N+](=O)[O-] [ABT-737] (max 10 µM)	-0.104	0.588	-0.475	0.727	0.729	0.496	0.936	-0.0028	-0.294	1.13	0.0446						
NC(=O)Nc1cc(-c2cccc(F)c2)sc1C(=O)N[C@H]1CCCNC1 [AZD7762] (max 10 µM)	-0.607	-0.277	-0.341	-0.186	-0.482	-0.398	-0.482	-0.704	0.115	0.614	0.984						
Cc1nc(NC(=O)N2CCC[C@H]2C(N)=O)sc1-c1ccnc(C(C)(C)C(F)(F)F)c1 [Alpelisib/BYL719] (max 10 µM)	-0.555	0.0449	0.532	0.0207	0.726	-0.341	0.684	-0.341	0.15	-0.0097	0.101						
Cc1c(N)nc([C@H](CC(N)=O)NC[C@H](N)C(N)=O)nc1C(=O)N[C@H](C(=O)N[C@H](C)[C@@H](O)[C@H](C)C(=O)N[C@H](C(=O)NCCc1nc(-c2nc(C(=O)NCCC[S+](C)C)cs2)cs1)[C@@H](C)O)[C@@H](OC1OC(CO)C(O)C(O)C1OC1OC(CO)C(O)C(OC(N)=O)C1O)c1cnc[nH]1 (some centres not stated) [Bleomycin] (max 10 µM)												-0.0459	0.481	-0.0884	-0.0141	0.147	0.281
Nc1cc(C(F)(F)F)c(-c2cc(N3CCOCC3)nc(N3CCOCC3)n2)cn1 [Buparlisib/NVP-BKM120] (max 10 µM)	-0.858	-0.0463	-0.342	-0.269	-0.269	-0.458	-0.272	-0.611	0.0382	0.512	0.302						
COc1cc2nccc(Oc3ccc(NC(=O)C4(C(=O)Nc5ccc(F)cc5)CC4)cc3)c2cc1OC [Cabozantinib] (max 10 µM)	0.743	0.731	-0.0122	-0.0993	0.691	0.639	0.533	0.288	0.0169	-0.0192	0.21						
COc1cc2c(Oc3ccc4[nH]c(C)cc4c3F)ncnc2cc1OCCCN1CCCC1 [Cediranib/AZD2171] (max 10 µM)	-0.529	0.364	0.893	0.115	0.0954	-0.32	-0.135	0.417	0.0765	0.0909	0.349						
Cc1cc(Nc2ncc(Cl)c(Nc3ccccc3S(=O)(=O)C(C)C)n2)c(OC(C)C)cc1C1CCNCC1 [Ceritinib/LDK378] (max 10 µM)	0.152	-0.803	-0.375	-0.616	-0.406	-0.445	-0.228	-0.32	0.412	0.274	0.46						
N.N.[Cl][Pt][Cl] [Cisplatin] (max 10 µM)				0.475	-0.365	-0.0741	0.0674			0.0866	0.117						
Cc1nc(Nc2ncc(C(=O)Nc3c(C)cccc3Cl)s2)cc(N2CCN(CCO)CC2)n1 [Dasatinib] (max 10 µM)	0.556	-0.197	0.423	0.157	-0.0992	0.274	0.37	0.47	0.388	0.925	0.518						
COc1cccc2c1C(=O)c1c(O)c3c(c(O)c1C2=O)C[C@@](O)(C(=O)CO)C[C@@H]3O[C@H]1C[C@H](N)[C@H](O)[C@H](C)O1 [Doxorubicin] (max 3.162 µM)	-0.205	0.245	-0.123	-0.286	-0.324	-0.338	-0.331	-0.677	0.744	0.751	0.966						
